In patent US20100249123A1, “NOVEL BENZAMIDE DERIVATIVES AS MODULATORS OF THE FOLLICLE STIMULATING HORMONE” (ADDEX PHARMA SA, priority 2007, published 2010):

Key:
[1] = molecular target: T1, rat follicle stimulating hormone receptor (rFSHR) (Rattus norvegicus, UniProt P20395); assay: Intracellular cAMP measurement (HTRF) assay, antagonism of EC70 of hFSH; format: cell-based; conditions: HEK293 cells expressing rFSHR, 1 ng/ml hFSH (EC70), read-out: Class (IC50 to antagonise an EC70 of FSH receptors agonist such as hFSH)
T1 construct: expressed in transfected cells
T1 sequence (P20395 18-692): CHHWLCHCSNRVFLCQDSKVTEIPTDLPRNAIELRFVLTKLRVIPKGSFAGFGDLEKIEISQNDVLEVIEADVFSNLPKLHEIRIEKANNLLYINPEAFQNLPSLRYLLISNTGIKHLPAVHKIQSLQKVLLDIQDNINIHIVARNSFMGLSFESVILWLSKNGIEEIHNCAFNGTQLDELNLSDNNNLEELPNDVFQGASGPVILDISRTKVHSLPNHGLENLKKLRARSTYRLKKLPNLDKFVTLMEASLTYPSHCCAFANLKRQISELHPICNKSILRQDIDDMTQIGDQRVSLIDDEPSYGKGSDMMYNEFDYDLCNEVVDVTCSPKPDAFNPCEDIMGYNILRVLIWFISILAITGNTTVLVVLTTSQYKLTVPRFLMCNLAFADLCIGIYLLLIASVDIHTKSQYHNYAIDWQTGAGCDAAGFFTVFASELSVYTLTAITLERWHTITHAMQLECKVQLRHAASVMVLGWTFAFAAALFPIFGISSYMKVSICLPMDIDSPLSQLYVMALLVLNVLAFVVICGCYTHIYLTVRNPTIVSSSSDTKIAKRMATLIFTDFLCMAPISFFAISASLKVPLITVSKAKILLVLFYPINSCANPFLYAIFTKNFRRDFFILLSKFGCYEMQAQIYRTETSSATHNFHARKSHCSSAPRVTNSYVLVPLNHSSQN
Source text: Intracellular cAMP Measurement Assay
The Intracellular cAMP measurement assay is a functional cell-based assay used to study GPCR function. This method relies on a Time-Resolved Fluorescence (HTRF) assay to measure the cAMP accumulation upon receptor-mediated Gs protein activation in cells expressing recombinant GPCR or in cells from native tissues. In brief, this method is a competitive immunoassay between native cAMP produced by cells and the cAMP labeled with a fluorescent tag. The endogenously produced cAMP competes with exogenous added d2-labelled cAMP for the cAMP binding site on a Eu3+ cryptate labelled anti-cAMP antibody. The d2-labelled cAMP and the Eu^3+ labelled antibody produces a basal fluroresence via HTRF and therefore an intracellular increase in unlabelled cAMP is detected as decrease in this signal. cAMP is one of the most important intracellular mediators. Its concentration in cells can be increased upon binding of many hormones to their receptors. The most studied pathway consists in the release of α-subunit GTP-binding proteins following ligand-receptor interaction, which in turn activates or inhibits the ATP/cAMP conversion function of adenylate cyclase enzyme. cAMP is then involved in many complex regulatory processes such as protein kinase activation or ion channel gating. This method is widely used to study receptor activation of G protein in cells over-expressing GPCRs or in native cells, including FSH receptors expressing cells (Gabriel et al., Assay Drug Dev. Technol., 1, 291-303, 2003).
Transfection and cell culture: The cDNA encoding the rat follicle stimulating hormone receptor (rFSHR), (accession number NM_199237, NCBI Nucleotide database browser) was subcloned into an expression vector containing also the hygromycin resistance gene. Transfection of this vector into HEK293 cells with PolyFect reagent (Qiagen) according to supplier's protocol, and hygromycin treatment allowed selection of antibiotic resistant cells which had integrated stably one or more copies of the plasmid. Positive cellular clones expressing rFSHR were identified in a functional assay measuring cAMP production in cells following stimulation by addition of purified human follicle stimulating hormone (hFSH).
HTRF cAMP assay: On the day of the experiment, cells were detached from the Petri dish and distributed in a low volume, black-walled 384-well plate at a density of 5,000 cells/well in an assay buffer containing 1 mM IBMX to prevent cAMP degradation by cytoplasmic phosphodiesterases. The determination of the cAMP accumulation was performed using an HTRF assay (Trinquet et al., Anal. Biochem., 358, 126-135, 2006). Briefly, cells were incubated for 3 min in the presence of increasing concentrations of negative allosteric modulators (from 1 nM to 60 μM) and then 30 min in the presence of 1 ng/ml of hFSH, an agonist of rat FSH receptor, that has been determined in previous experiments to correspond to the EC70, a concentration that gives 70% of the maximal response of the agonist, and is in accordance with published data (Fox et al., Mol. Endocrin., 15, 378-389, 2001). […] Cells were then lysed by adding the HTRF assay components, the europium cryptate-labeled anti-cAMP antibody, and the XL665-labeled cAMP analog, previously diluted in a HEPES buffer (50 mM, pH 7.0) containing 0.8 M potassium fluoride, 0.2% (w/v) BSA, and 1% (v/v) Triton X-100, a percentage of detergent that ensure complete cell lysis. Assay was then incubated for 1 hr at room temperature, and HTRF signal was measured after excitation at 337 nm, and dual emission at 620 and 665 nm, using a RubyStar fluorimeter (BMG Labtechnologies). Moreover, the fluorescence ratio of an appropriate range of known concentrations of cAMP standards was also included on each assay plate to produce a standard cAMP curve. […]

Structure (SMILES)	melting point	IC50 [1]
COc1ccc(C(=O)Nc2ccc(C(C)(C)CNC(=O)CCc3ccccc3)cc2)cc1OC [Example 34]	149 to 151 °C	150 to 400 nM
COc1ccc(C(=O)Nc2ccc(C(C)(C)CNC(=O)c3cc4ccccc4n3C)cc2)cc1OC [Example 108]	176 to 178 °C	400 to 1000 nM
COc1ccc(C(=O)Nc2ccc(C(C)(C)CNC(=O)Cc3c[nH]c4ccccc34)cc2)cc1OC [Example 126]	94 to 96 °C	150 to 400 nM
COc1ccc(C(=O)Nc2ccc(C(C)(C)CNC(C)=O)c(F)c2)cc1OC [Example 151, N-[4-(2-Acetylamino-1,1-dimethyl-ethyl)-3-fluoro-phenyl]-3,4-dimethoxy-benzamide]	186 to 188 °C	–
COc1ccc(C(=O)Nc2ccc(C(C)(C)CNC(=O)c3cnc4ccccn34)cc2)cc1OC [Example 161, Imidazo[1,2-a]pyridine-3-carboxylic acid {2-[4-(3,4-dimethoxy-benzoylamino)-phenyl]-2-methyl-propyl}-amide]	181 to 183 °C	–
COc1ccc(C(=O)Nc2ccc(C(C)(C)CNC(=O)c3nc4ccccc4[nH]3)cc2)cc1OC [Example 162, 1H-Benzoimidazole-2-carboxylic acid {2-[4-(3,4-dimethoxy-benzoylamino)-phenyl]-2-methyl-propyl}-amide]	223 to 226 °C	–
COc1ccc(C(=O)Nc2ccc(C(C)(C)CNC(=O)c3ccc4nccn4c3)cc2)cc1OC [Example 190]	194 to 196 °C	≥ 1000 nM
COc1ccc(C(=O)Nc2ccc(C(C)(C)CNC(=O)c3nc4ccc(F)cc4[nH]3)cc2)cc1OC [Example 193, 6-Fluoro-1H-benzoimidazole-2-carboxylic acid {2-[4-(3,4-dimethoxy-benzoylamino)-phenyl]-2-methyl-propyl}-amide]	222 to 224 °C	< 150 nM
COc1ccc(C(=O)Nc2ccc(C(C)(C)CNC(C)=O)c(-c3cccnc3)c2)cc1OC [Example 195, N-[4-(2-Acetylamino-1,1-dimethyl-ethyl)-3-pyridin-3-yl-phenyl]-3,4-dimethoxy-benzamide]	234 to 237 °C	≥ 1000 nM
CCc1cc(NC(=O)c2ccc(OC)c(OC)c2)ccc1C(C)(C)CNC(C)=O [Example 200, N-[4-(2-Acetylamino-1,1-dimethyl-ethyl)-3-ethyl-phenyl]-3,4-dimethoxy-benzamide]	203 to 206 °C	< 150 nM

Further lines, results first:

melting point	IC50 [1]	Structure (SMILES)
189 to 190 °C	150 to 400 nM	COc1ccc(C(=O)Nc2ccc(C(C)(C)CNC(=O)c3ccsc3)cc2)cc1OC [Example 72]
214 to 216 °C	150 to 400 nM	COc1ccc(C(=O)Nc2ccc(C(C)(C)CNC(=O)c3n[nH]c4ccccc34)cc2)cc1OC [Example 87]
145 to 147 °C	< 150 nM	COc1ccc(C(=O)Nc2ccc(C(C)(C)CNC(=O)c3csc4ccccc34)cc2)cc1OC [Example 116]
195 to 198 °C	–	COc1ccc(C(=O)Nc2ccc(C(C)(C)C#N)cc2)c(Cl)c1OC [Example 153, 2-Chloro-N-[4-(cyano-dimethyl-methyl)-phenyl]-3,4-dimethoxy-benzamide]
142 to 144 °C	–	COc1cc(Cl)c(C(=O)Nc2ccc(C(C)(C)C#N)cc2)cc1OC [Example 155, 2-Chloro-N-[4-(cyano-dimethyl-methyl)-phenyl]-4,5-dimethoxy-benzamide]
144 to 146 °C	–	COc1ccc(C(=O)Nc2ccc(C(C)(C)C#N)c(-c3cccc(Cl)c3)c2)cc1OC [Example 157, N-[3′-Chloro-6-(cyano-dimethyl-methyl)-biphenyl-3-yl]-3,4-dimethoxy-benzamide]
196 to 199 °C	–	COc1ccc(C(=O)Nc2ccc(C(C)(C)C#N)c(-c3ccncc3)c2)cc1OC [Example 158, N-[4-(Cyano-dimethyl-methyl)-3-pyridin-4-yl-phenyl]-3,4-dimethoxy-benzamide]
138 to 140 °C	–	CCOc1ccc(C(=O)Nc2ccc(C(C)(C)C#N)cc2)cc1OCC [Example 160, N-[4-(Cyano-dimethyl-methyl)-phenyl]-3,4-diethoxy-benzamide]
198 to 200 °C	≥ 1000 nM	COc1ccc(C(=O)Nc2ccc(C(C)(C)C#N)c(-c3cncnc3)c2)cc1OC [Example 184, N-[4-(Cyano-dimethyl-methyl)-3-pyrimidin-5-yl-phenyl]-3,4-dimethoxy-benzamide]
